In PubChem BioAssay AID1996:
In brackets after ≈: the same amount, converted by molar mass.

Conditions: buffer; pH 7.4; 200.0 µM

| solubility kinetic [µg/mL] | SMILES |
| --- | --- |
| 41.1 (≈ 132 µM) | COc1cccc(OC)c1C(=O)Nc1cccc2c1CCCC2 |
| > 50.6 | COc1cc(CCC(=O)N2CC(C)OC(C)C2)cc(OC)c1OC (centres undefined) |
| 32.5 (≈ 99.2 µM) | Cc1cccc(NC(=S)N(CCc2ccncc2)C(C)C)c1C |
| 45.7 (≈ 138 µM) | CCOC(=O)C1(CCOc2ccccc2)CCN(CC2CC2)CC1 |
| 23.5 (≈ 64.3 µM) | C=CCN1C(=O)C(C)(C)N(C(=O)c2cccc([N+](=O)[O-])c2)c2ccccc21 |
| 12.2 (≈ 25.5 µM) | Cc1nc2sccn2c(=O)c1CCN1CCC(=C(c2ccc(F)cc2)c2ccc(F)cc2)CC1 |
| > 44.6 | O=C(CCC(=O)c1ccccc1)NCCOc1ccccc1 |
| > 44.4 | COc1cc(F)ccc1S(=O)(=O)NCc1cccnc1 |
| 4.4 (≈ 14.1 µM) | CCOc1ccc(NC(=S)N2c3ccccc3CC2C)cc1 (centres undefined) |
| > 51.4 | CC(=O)NC(CC(=O)OCc1ccc([N+](=O)[O-])cc1)c1ccccc1 (centres undefined) |
| 12.7 (≈ 30.6 µM) | Cc1ccc(S(=O)(=O)N2CCN(C(=O)Cn3c(=O)oc4ccccc43)CC2)cc1 |
| 52.9 (≈ 150 µM) | Cc1cc(=O)oc2cc(OCC(=O)Nc3ccccc3C(=O)O)ccc12 |
| 22.8 (≈ 48.9 µM) | CN(Cc1ccc(OC(F)F)cc1)C(=O)/C=C/c1ccc(S(=O)(=O)N2CCOCC2)cc1 |
| > 50 | O=C(NC1(C(F)(F)F)NC(=O)N(C2CCCCC2)C1=O)C1CC1 (centres undefined) |
| > 46.7 | COc1cccc(/C=C(/C(=O)OCC(N)=O)c2ccccc2)c1 |
| 46.1 | CCOc1c(Cl)cc(CNCc2ccncc2)cc1OC.Cl |
| 0.9 (≈ 2.89 µM) | O=C(Oc1ccc2ccc(=O)oc2c1)c1ccc([N+](=O)[O-])cc1 |
| < 0.4 | O=C(Nc1ccc(Cl)cn1)c1cc2c(s1)-c1ccccc1OC2 |
| 1.6 (≈ 5.09 µM) | COc1ccc(NC(=O)c2cc(-c3ccco3)on2)cc1OC |
| > 43.6 | Cc1ccc(S(=O)(=O)NCCN2CCOCC2)s1 |

| solubility kinetic [µg/mL] | SMILES |
| --- | --- |
| > 47.5 | COc1ccc(CCNC(=O)COC(=O)c2cccn2C)cc1 |
| 42.5 (≈ 127 µM) | N#C/C(=C\c1cccc(Oc2ccccc2)c1)C(=O)N1CCOCC1 |
| > 53.6 | CC(=O)c1ccc(NC(=O)COC(=O)C2C3CC4OC(=O)C2C4C3)cc1 (centres undefined) |
| 34 | O=C(C[n+]1ccccc1)Nc1ccccc1[N+](=O)[O-].[Cl-] |
| < 0.7 | Cc1ccc(S(=O)(=O)NCC2(c3ccccc3)CCOCC2)cc1 |
| > 48.4 | CC(=O)N1c2ccc(S(=O)(=O)N3CCCCC3)cc2CC1C (centres undefined) |
| 41.9 (≈ 139 µM) | O=C(NC1CCCC1)C1CCCN1C(=O)Oc1ccccc1 (centres undefined) |
| > 45.5 | O=C(Cn1ccc([N+](=O)[O-])n1)Nc1nc2ccccc2s1 |
| > 56.4 | COc1ccc(C(=O)N2CCC(O)(c3ccc(Cl)cc3)CC2)cc1OC |
| > 55.3 | Cc1nn(CC(=O)NCCC2=CCCCC2)c(C)c1S(=O)(=O)N(C)C |
| 30.6 (≈ 113 µM) | Cc1cc(OCc2nc3ccccc3s2)ccc1N |
| > 55.6 | COc1cc(/C=N/NC(=O)CNC(=O)c2ccncc2)ccc1OC(C)=O |
| > 36.2 | CCOc1ccc(S(=O)(=O)NC2CC2)cc1 |
| 1.6 (≈ 4.03 µM) | Cc1ccc2oc(C(=O)N(Cc3ccccc3)C3CCS(=O)(=O)C3)c(C)c2c1 (centres undefined) |
| > 45.2 | CCNC(=O)C(=O)Nc1cc2c3c(c1)CCC(=O)N3CCC2 |
| 11.3 (≈ 34.1 µM) | COc1cccc(OC)c1C(=O)NC(=S)NCc1cccnc1 |
| > 28.5 | CCOc1ccc2c(c1)nc(C)n2C |
| > 45.1 | CCCC(=O)Nc1nnc(SCC(=O)NC2CC2)s1 |
| > 40.1 | O=C(CCc1ccccc1)NC1CCS(=O)(=O)C1 (centres undefined) |
| > 49.4 | O=C(COC(=O)C1=COCCO1)Nc1ccccc1OC(F)F |

| solubility kinetic [µg/mL] | SMILES |
| --- | --- |
| 39.5 (≈ 132 µM) | CC1(C)Cc2ccccc2-c2nc(NCCCO)[nH]c(=O)c21 |
| 1.9 (≈ 7.14 µM) | Nc1nccc(/C=C/c2c(Cl)cccc2Cl)n1 |
| 8.3 (≈ 24.2 µM) | CC1(C)CN=C(N(C(=O)Nc2ccccc2)c2ccccc2F)S1 |
| < 0.3 | CCOC(=O)c1c(NC(=O)CN2CCCCC2)sc(C)c1C |
| 42.7 (≈ 138 µM) | CCCCOc1cc(C(=O)OCCN(CC)CC)ccc1N |
| 8.5 (≈ 17.8 µM) | CCCCN(C(=O)c1cccc(-c2ccc(OC(C)=O)cc2)c1)c1c(N)n(CCC)c(=O)[nH]c1=O |
| 31.4 (≈ 106 µM) | COc1ccc(CNC2CCCc3ccccc32)c(OC)c1 (centres undefined) |
| 38.7 (≈ 128 µM) | O=C(COc1ccccc1Cl)N1CCc2ccccc2C1 |
| 2.9 (≈ 8.93 µM) | O=c1c2ccc(Cl)cc2nc2n1CC/C2=C\c1cccc(O)c1 |
| > 43.6 | COC(=O)C(N)Cc1ccc(OC)c([N+](=O)[O-])c1.Cl (centres undefined) |
| 2.9 (≈ 8.86 µM) | COc1cccc(N2CCN(C(=S)Nc3ccccc3)CC2)c1 |
| 32.3 (≈ 97.2 µM) | CCCN1CCC(N2CCN(c3ccc([N+](=O)[O-])cc3)CC2)CC1 |
| 32.3 (≈ 130 µM) | O=C(/C=C/c1cccs1)NCc1cccs1 |
| 3.1 (≈ 11.5 µM) | Cc1ccc(C2CC2/C(=N/O)c2ccc(F)cc2)cc1 (centres undefined) |
| 6.9 (≈ 27.2 µM) | Cc1ccc(-n2c(=O)[nH]c3ncccc3c2=O)cc1 |
| 4.8 (≈ 18.2 µM) | CCOc1nc(-c2ccccc2)c2cc(C)ccc2n1 |
| 7.2 (≈ 22.5 µM) | CCc1ccnc(NS(=O)(=O)c2ccc3c(c2)OCCO3)c1 |
| 7 (≈ 23.2 µM) | Cn1c(SCc2ccccc2)nc2c1c(=O)[nH]c(=O)n2C |

| SMILES | solubility kinetic [µg/mL] |
| --- | --- |
| O=c1c2ccccc2nc(/C=C/c2ccc(F)cc2)n1-c1ccccc1O | 5.2 (≈ 14.5 µM) |
